Measured values published in patent US20100160294A1 (Cypress Biosciences, Inc., priority 2008, published 2010).

Assays:
[1] = Example 1: tolerability study of mirtazapine and reboxetine in normal healthy subjects; assay type: in vivo, human; conditions: 6 weeks; 15 mg mirtazapine in the evening, 2 mg reboxetine in the morning, or 2 or 4 mg reboxetine + 15 mg mirtazapine
Experimental: (§1) The subjects receive 2 capsules per day, one in the morning and one at bedtime. […] All medications are administered in an over-encapsulated format that ensures blinding of study participants, staff and investigators. All subjects are scheduled to receive a total of 6 weeks of therapy, and are required to return to the clinics after 1, 2, 4 and 6 weeks of therapy. Patients are required to complete paper self-assessments, electronic diary assessments, computer based cognitive testing, as well as vital signs and weight assessments at the clinic visits.

[2] = Example 4: tolerability study of mirtazapine and betahistine in normal healthy subjects; assay type: in vivo, human; conditions: 6 weeks; 15 mg mirtazapine in the evening, 8 mg betahistine in the morning, or 8 or 16 mg betahistine + 15 mg mirtazapine
Experimental: as §1

[3] = cited from earlier work
[4] = tested on: 5-HT and NA reuptake sites; conditions: ratio of Ki for serotonin reuptake to Ki for norepinephrine reuptake; from U.S. Pat. No. 6,642,235; cited from earlier work

Question: Which side effects [1] does the source give for `CN1CCN2c3ncccc3Cc3ccccc3C2C1` (stereo not drawn) [mirtazapine, 1,2,3,4,10,14b-hexahydro-2-methylpyrazino [2,1-a]pyrido[2,3-c]benzazepine] here?
Answer: Its side effects is “weight gain, sedation, and cognitive deficits”.

Question: What about the side effects [2] of the same molecule?
Answer: Its side effects is “weight gain, sedation, and cognitive deficits”.

Question: Which results are given for `CN(C)CCC=C1c2ccccc2CCc2ccccc21` [amitriptyline]?
Answer: appetite increase reported, share of patients ([3]; controlled studies, placebo 2%): 6%; weight gain of greater than or equal to 7% of body weight, share of patients ([3]; same controlled trials, placebo 0%): 5.9%

Question: With `CNCCc1ccccn1` [betahistine, 2-[2-(methylamino)ethyl]pyridine] as the molecule, how does the side effects [2] read?
Answer: The side effects was “insomnia, nausea/vomiting, and weight loss”.

Question: For `CCOc1ccccc1OC(c1ccccc1)C1CNCCO1` (racemic) [reboxetine, 2-[(2-ethoxyphenoxy)-phenyl-methyl]morpholine], which side effects [1] is on record?
Answer: The side effects was “insomnia, nausea/vomiting, and weight loss”.

Question: And the side effects [2]?
Answer: Its side effects is “insomnia, nausea/vomiting, and weight loss”.

Question: And the “norepinephrine reuptake inhibitor selectivity (Ki5HT/KiNA)” value [4]?
Answer: The value was “about 80”.

Question: With (S,S)reboxetine as the molecule, how does the “norepinephrine reuptake inhibitor selectivity (Ki5HT/KiNA)” value [4] read?
Answer: The value was “about 12,700”.
